Reference: patent US10442796B2, “2,3,5-substituted thiophene compound as protein kinase inhibitor” (KOREA INSTITUTE OF SCIENCE AND TECHNOLOGY, priority 2016, dated 2019)
Where a chain is given by its changes, count along the chain named. Structures can show the parent of a compound that is named as a salt.

Experiments:
FLT3-D835Y Ba/F3 cells = target: T1, FLT3-D835Y Ba/F3 cells (Homo sapiens, UniProt P36888, D835Y, cells depend on it); assay: Growth inhibitory activity against Ba/F3 cell line; assay type: cell-based; conditions: Ba/F3 expressing FLT3-D835Y; 72 hours; cell titer glo; read-out: IC50 (uM) FLT3-D835Y
T1 sequence (P36888 1-993 D835Y): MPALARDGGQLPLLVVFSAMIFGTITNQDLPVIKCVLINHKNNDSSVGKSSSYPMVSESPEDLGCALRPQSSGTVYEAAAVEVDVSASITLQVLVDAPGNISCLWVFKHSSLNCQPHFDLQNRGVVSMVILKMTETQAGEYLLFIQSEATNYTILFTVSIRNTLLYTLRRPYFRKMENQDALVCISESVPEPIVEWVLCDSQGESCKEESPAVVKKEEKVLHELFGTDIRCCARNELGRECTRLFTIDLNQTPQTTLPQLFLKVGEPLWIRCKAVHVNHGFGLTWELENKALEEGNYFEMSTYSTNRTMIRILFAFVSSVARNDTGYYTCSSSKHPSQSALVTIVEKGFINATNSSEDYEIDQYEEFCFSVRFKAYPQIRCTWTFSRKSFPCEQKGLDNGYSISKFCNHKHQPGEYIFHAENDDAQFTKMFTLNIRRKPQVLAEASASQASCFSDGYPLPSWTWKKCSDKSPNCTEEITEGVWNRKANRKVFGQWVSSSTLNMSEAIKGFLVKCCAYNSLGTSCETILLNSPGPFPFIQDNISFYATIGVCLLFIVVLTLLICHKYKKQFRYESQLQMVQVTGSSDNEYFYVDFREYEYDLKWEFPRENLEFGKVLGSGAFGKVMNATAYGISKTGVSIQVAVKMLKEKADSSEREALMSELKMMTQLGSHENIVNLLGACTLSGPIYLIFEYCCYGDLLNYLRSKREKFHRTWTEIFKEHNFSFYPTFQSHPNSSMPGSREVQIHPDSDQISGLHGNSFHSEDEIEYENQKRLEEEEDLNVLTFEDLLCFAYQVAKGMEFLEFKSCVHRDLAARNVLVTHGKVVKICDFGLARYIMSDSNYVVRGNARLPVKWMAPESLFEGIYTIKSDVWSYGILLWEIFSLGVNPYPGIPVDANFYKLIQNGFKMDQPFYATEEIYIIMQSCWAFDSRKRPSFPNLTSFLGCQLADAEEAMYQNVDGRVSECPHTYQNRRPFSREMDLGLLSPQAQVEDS
Protocol: (§1) A Ba/F3 cell line expressing an FLT3 mutation gene was cultured in a culture solution including 90% RPMI, 10% FBS, and an antibiotic (Welgene). 100 uL of the Ba/F3 cell line was put into each of 5,000 wells of a TC-treated 96 well plate (SPL), and then 1 uL of a test compound diluted in dimethylsulfoxide (diluted for each 3 paint from a concentration of 1 mM, total 10 concentrations) was each injected thereinto. Thereafter, the resulting cell lines were incubated in a cell culture incubator for 72 hours. 50 uL of a cell titer glo (Promega) solution was added thereto, the resulting mixture was stored at room temperature for 10 minutes, and then the light emission intensity was measured by using a reader (Envision, PerkinElmer). The light emission intensity was shown as a graph for each final concentration of the test compound, and the GI50 value was obtained by using a Prism 5.0 (GraphPad) software.

[1] = target: T2, FLT3-ITD-F691L Ba/F3 cells (Homo sapiens, UniProt P36888, F691L, cells depend on it, form not given); assay: Growth inhibitory activity against Ba/F3 cell line; assay type: cell-based; conditions: Ba/F3 expressing FLT3-ITD-F691L; 72 hours; cell titer glo; read-out: IC50 (uM) FLT3-ITD-F691L
T2 sequence (P36888 1-993 F691L): T1 sequence (P36888 1-993 D835Y) with F691L, Y835D
Protocol: as §1

SMILES | GI50 (FLT3-D835Y Ba/F3 cells) [µM] | GI50 [1] [µM]
NC(=O)Nc1cc(C#Cc2cccc(F)c2)sc1C(=O)NC1CCNC1 (stereo not shown) [Example 40, 5-((3-fluorophenyl)ethynyl)-N-(pyrrolidin-3-yl)-3-ureidothiophene-2-carboxamide] | 0.925 | 0.848
Cn1cc(C#Cc2cc(NC(N)=O)c(C(=O)N[C@H]3CCCCNC3)s2)cn1 [Example 41, (S)—N-(azepan-3-yl)-5-((1-methyl-1H-pyrazol-4-yl)ethynyl)-3-ureidothiophene-2-carboxamide trifluoroacetate] | 0.092 | 0.078
NC(=O)Nc1cc(C#Cc2cn[nH]c2)sc1C(=O)N[C@H]1CCCCNC1 [Example 42, (S)-5-((1H-pyrazol-4-yl)ethynyl)-N-(azepan-3-yl)-3-ureidothiophene-2-carboxamide trifluoroacetate] | 4.01 | 5.23
CCn1cc(C#Cc2cc(NC(N)=O)c(C(=O)N[C@H]3CCCCNC3)s2)cn1 [Example 43, (S)—N-(azepan-3-yl)-5-((l-ethyl-1H-pyrazol-4-yl)ethynyl)-3-ureidothiophene-2-carboxamide trifluoroacetate] | 0.3 | 0.2
CC(C)n1cc(C#Cc2cc(NC(N)=O)c(C(=O)N[C@H]3CCCCNC3)s2)cn1 [Example 44, (S)—N-(azepan-3-yl)-5-((1-isopropyl-1H-pyrazol-4-yl)ethynyl)-3-ureidothiophene-2-carboxamide trifluoroacetate] | 0.216 | 0.214
COCCn1cc(C#Cc2cc(NC(N)=O)c(C(=O)N[C@H]3CCCCNC3)s2)cn1 [Example 45, (S)—N-(azepan-3-yl)-5-((1-(2-methoxyethyl)-1H-pyrazol-4-yl)ethynyl)-3-ureidothiophene-2-carboxamide trifluoroacetate] | 0.841 | 1.34
NC(=O)Nc1cc(C#Cc2cnn(C3CCOCC3)c2)sc1C(=O)N[C@H]1CCCCNC1 [Example 46, (S)—N-(azepan-3-yl)-5-((1-(tetrahydro-2H-pyran-4-yl)-1H-pyrazol-4-yl)ethynyl)-3-ureidothiophene-2-carboxamide trifluoroacetate] | 0.042 | 0.075
CS(=O)(=O)N1CCC(n2cc(C#Cc3cc(NC(N)=O)c(C(=O)N[C@H]4CCCCNC4)s3)cn2)CC1 [Example 47, (S)—N-(azepan-3-yl)-5-((1-(1-(methylsulfonyl)piperidin-4-yl)-1H-pyrazol-4-yl)ethynyl)-3-ureidothiophene-2-carboxamide trifluoroacetate] | 0.533 | 0.645
NC(=O)Nc1cc(C#Cc2ccsc2)sc1C(=O)N[C@H]1CCCCNC1 [Example 48, (S)—N-(azepan-3-yl)-5-(thiophen-3-ylethynyl)-3-ureidothiophene-2-carboxamide trifluoroacetate] | 0.067 | 0.083
CC(=O)N1CCC(n2cc(C#Cc3cc(NC(N)=O)c(C(=O)N[C@H]4CCCCNC4)s3)cn2)CC1 [Example 49] | 0.437 | 0.616
NC(=O)Nc1cc(C#Cc2cccc(F)c2)sc1C(=O)N[C@H]1CCCCNC1 [Example 50, (S)—N-(azepan-3-yl)-5-((3-fluorophenyl)ethynyl)-3-ureidothiophene-2-carboxamide] | 0.228 | 0.174
Cn1cc(CCc2cc(NC(N)=O)c(C(=O)N[C@H]3CCCCNC3)s2)cn1 [Example 52, (S)—N-(azepan-3-yl)-5-(2-(1-methyl-1H-pyrazol-4-yl)ethyl)-3-ureidothiophene-2-carboxamide trifluoroacetate] | > 33 | > 100
NC(=O)Nc1cc(CCc2cccc(F)c2)sc1C(=O)N[C@H]1CCCNC1 [Example 53] | 1.61 | 1.39
NC(=O)Nc1cc(CCc2cccc(F)c2)sc1C(=O)N[C@H]1CCCCNC1 [Example 54, (S)—N-(azepan-3-yl)-5-(3-fluorophenethyl)-3-ureidothiophene-2-carboxamide] | 11.5 | 7.47
